In paper PMC4812014, “Structural Investigations of N-carbamoylputrescine Amidohydrolase from Medicago truncatula: Insights into the Ultimate Step of Putrescine Biosynthesis in Plants” (Frontiers in Plant Science, 2016):

Tests used:
MtCPA [1] = target: T1, MtCPA (Medicago truncatula, UniProt G7ITU5); test: X-ray crystallography of complex, […] Å; format: binding; conditions: covalent; bound to Cys158 in active site; formed in crystal from 10 mM putrescine (probably with CO2), pH 7.0
T1 construct: gene MTR_2g086600; recombinant in E. coli BL21 Gold (pMCSG68); His6 tag cut by TEV, N-terminal Ser-Asn-Ala linker remains; homooctamer, active site fenced by dimer mate
T1 sequence (G7ITU5 entry or part of it): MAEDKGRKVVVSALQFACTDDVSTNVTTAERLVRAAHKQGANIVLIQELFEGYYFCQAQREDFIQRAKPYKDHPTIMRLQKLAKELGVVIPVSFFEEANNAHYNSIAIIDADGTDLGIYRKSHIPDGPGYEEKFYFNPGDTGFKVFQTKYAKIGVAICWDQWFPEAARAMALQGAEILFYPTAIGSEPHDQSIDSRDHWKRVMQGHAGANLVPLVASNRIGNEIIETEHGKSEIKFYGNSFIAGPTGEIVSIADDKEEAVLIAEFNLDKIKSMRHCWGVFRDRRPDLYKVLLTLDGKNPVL

[2] = target: MtCPA-C158S mutant (Medicago truncatula); test: crystal structure; hanging drop, 20% PEG3350, 8% Tacsimate pH 7.0 (with or without 10% glycerol); space group P2(1)2(1)2, two octamers in the asymmetric unit; data at 100 K
MtCPA [3] = target: T2, MtCPA (Medicago truncatula, UniProt G7ITU5, C158S); test: X-ray crystallography of complex, […] Å; format: binding; conditions: cocrystallized with 10 mM putrescine, pH 7.0; active site, non-covalent
T2 construct: gene MTR_2g086600; recombinant in E. coli BL21 Gold (pMCSG68); His6 tag cut by TEV, N-terminal Ser-Asn-Ala linker remains; homooctamer, active site fenced by dimer mate
T2 sequence (G7ITU5 1-301 C158S): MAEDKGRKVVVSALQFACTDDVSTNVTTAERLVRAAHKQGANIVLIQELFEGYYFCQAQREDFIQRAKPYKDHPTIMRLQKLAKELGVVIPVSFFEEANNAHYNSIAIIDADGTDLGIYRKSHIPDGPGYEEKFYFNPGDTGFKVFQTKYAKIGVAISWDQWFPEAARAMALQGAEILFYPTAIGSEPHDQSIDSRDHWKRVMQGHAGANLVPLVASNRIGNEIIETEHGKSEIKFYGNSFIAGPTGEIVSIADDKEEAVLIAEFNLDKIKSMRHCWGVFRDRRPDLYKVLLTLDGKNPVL

MtCPA [4] = target: T1, MtCPA; test: X-ray crystallography of complex, […] Å; format: binding; conditions: cocrystallized with 17 mM cadaverine, pH 7.0; active site, non-covalent
[5] = target: N-carbamoylputrescine amidohydrolase from Medicago truncatula (MtCPA), wild type (Medicago truncatula); test: crystal structure; hanging drop, 20% PEG3350, 8% Tacsimate pH 7.0 (with or without 10% glycerol); space group P2(1)2(1)2, two octamers in the asymmetric unit; data at 100 K

NCCCCNC(O)O [DHMP, N-(dihydroxymethyl)putrescine]
X-ray crystallography of complex, 1.97 Å (MtCPA [1]): DHMP was covalently bound to the catalytic Cys158

MtCPA-C158S mutant (enzyme)
stoichiometry N [2]: 8

NCCCCN [PUT, 1,4-diaminobutane]
X-ray crystallography of complex, 2.29 Å (MtCPA [3]): MtCPA-C158S mutant cocrystallized with PUT clearly shows the ligand without any modifications

NCCCCCN [CAD, 1,5-diaminopentane]
X-ray crystallography of complex, 2.19 Å (MtCPA [4]): we do indeed observe CAD in the active site

N-carbamoylputrescine amidohydrolase from Medicago truncatula (MtCPA), wild type (enzyme)
stoichiometry N [5]: 8
